Data from ChEMBL document CHEMBL1201862, “PubChem BioAssay data set” (2004).
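A five-concentration, 48-hour dose response in 96-well plates underlies each endpoint, interpolated linearly between surrounding concentrations. Here, GI50 denotes the concentration required for 50% inhibition of growth.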 Active and inactive are the calls of the source. Cut-off read from the data, not from the text of the source: active = GI50 up to about 1.1 µM and inactive = higher.

Key:
Assay in all cases: growth of human tumour cells (NCI), 48 h
[1] = test system: LOX IMVI
[2] = test system: A498
[3] = test system: SW-620
[4] = test system: IGROV-1
[5] = test system: Malme-3M
[6] = test system: SK-MEL-28
[7] = test system: MDA-MB-435
[8] = test system: BT-549
[9] = test system: OVCAR-5
[10] = test system: SN12C
[11] = test system: NCI-H226
[12] = test system: HL-60
[13] = test system: OVCAR-4
[14] = test system: HT-29
[15] = test system: SNB-19
[16] = test system: TK-10
[17] = test system: ACHN
[18] = test system: COLO 205
[19] = test system: NCI/ADR-RES
[20] = test system: SNB-75

SMILES | GI50 [1] | GI50 [2] | GI50 [3] | GI50 [4] | GI50 [5] | GI50 [6] | GI50 [7] | GI50 [8] | GI50 [9] | GI50 [10] | GI50 [11] | GI50 [12] | GI50 [13] | GI50 [14] | GI50 [15] | GI50 [16] | GI50 [17] | GI50 [18] | GI50 [19] | GI50 [20]
CCC/N=C1\S/C(=C/c2ccc(OC)c(OC)c2)C(=O)N1c1ccccc1 | > 100 µM (inactive) | 21.5 µM (inactive) | > 100 µM (inactive) | 80.2 µM (inactive) | > 100 µM (inactive) | > 100 µM (inactive) | > 100 µM (inactive) | 74.8 µM (inactive) | 44.9 µM (inactive) | 54.8 µM (inactive) | 41.8 µM (inactive) | 59.8 µM (inactive) | 16 µM (inactive) | > 100 µM (inactive) | 17.8 µM (inactive) | 22.8 µM (inactive) | 42.8 µM (inactive) | > 100 µM (inactive) | 93.1 µM (inactive) | 
O=c1[nH]c(=O)n(C2COC(CO)C2O)cc1F (configuration not stated) | 11 µM (inactive) | 5.28 µM (inactive) | 55.3 µM (inactive) | 32.4 µM (inactive) | 9.29 µM (inactive) | 26.7 µM (inactive) | 48.9 µM (inactive) | 32.7 µM (inactive) | > 100 µM (inactive) | 28.3 µM (inactive) | > 100 µM (inactive) |  | > 100 µM (inactive) | 39 µM (inactive) | > 100 µM (inactive) | 68.1 µM (inactive) | 38.5 µM (inactive) | 25.1 µM (inactive) | 72.1 µM (inactive) | 31 µM (inactive)
Nc1ccn([C@H]2CO[C@@H](CO)[C@@H]2O)c(=O)n1 | > 100 µM (inactive) | > 100 µM (inactive) | > 100 µM (inactive) | > 100 µM (inactive) |  | > 100 µM (inactive) | > 100 µM (inactive) | > 100 µM (inactive) | > 100 µM (inactive) | > 100 µM (inactive) | > 100 µM (inactive) |  | > 100 µM (inactive) | > 100 µM (inactive) |  | > 100 µM (inactive) | > 100 µM (inactive) | > 100 µM (inactive) | > 100 µM (inactive) | > 100 µM (inactive)
O=Nc1c(-c2c(O)[nH]c3ccccc23)[nH]c2ccccc12 [INDIRUBIN-3-MONOXIME] | 3.86 µM (inactive) | 2.29 µM (inactive) | 4.79 µM (inactive) | 2.67 µM (inactive) | 3.89 µM (inactive) | 6.9 µM (inactive) | 3.79 µM (inactive) | 8.11 µM (inactive) | 7.26 µM (inactive) | 2.98 µM (inactive) |  | 2.72 µM (inactive) | 5.08 µM (inactive) | 7.14 µM (inactive) | 25.8 µM (inactive) | 5.79 µM (inactive) | 1.94 µM (inactive) | 12.5 µM (inactive) | 5.77 µM (inactive) | 3.88 µM (inactive)
O=C(c1cccs1)N(C(=S)OCCOc1ccccc1)c1ccccc1 | 17.1 µM (inactive) | 25.5 µM (inactive) | 25.5 µM (inactive) | 25.4 µM (inactive) | 31.3 µM (inactive) | 24.8 µM (inactive) | 17 µM (inactive) | 20.8 µM (inactive) | 28.4 µM (inactive) | 22.1 µM (inactive) |  | 27.6 µM (inactive) | 29.8 µM (inactive) | 34 µM (inactive) | 29.4 µM (inactive) | 41 µM (inactive) | 27.7 µM (inactive) | 24.8 µM (inactive) | 20.9 µM (inactive) | 24.3 µM (inactive)
COC(=O)c1c(CC(Cc2ccc3c(c2)CCCC3)C(=O)OC)ccc2c1CCCC2 (configuration not stated) | 43 µM (inactive) | > 100 µM (inactive) | > 100 µM (inactive) | > 100 µM (inactive) | 38 µM (inactive) | > 100 µM (inactive) | 42.4 µM (inactive) | > 100 µM (inactive) | > 100 µM (inactive) | > 100 µM (inactive) |  | 16.6 µM (inactive) | 5.68 µM (inactive) | 24.4 µM (inactive) | > 100 µM (inactive) | > 100 µM (inactive) | 45.1 µM (inactive) | 19.9 µM (inactive) | > 100 µM (inactive) | > 10 µM (inactive)
C=C1C(=O)O[C@H]2C[C@@H]1C(=O)CC(C)CCCC(C)=CCC[C@@]2(C)O (some centres not stated) | > 25 µM (inactive) | > 25 µM (inactive) | > 25 µM (inactive) | > 25 µM (inactive) | > 25 µM (inactive) | > 25 µM (inactive) | > 25 µM (inactive) | > 25 µM (inactive) | > 25 µM (inactive) | > 25 µM (inactive) | > 25 µM (inactive) | > 25 µM (inactive) | > 25 µM (inactive) | > 25 µM (inactive) | > 25 µM (inactive) | > 25 µM (inactive) | > 25 µM (inactive) | > 25 µM (inactive) | > 25 µM (inactive) | 
CC1(O)C(=O)OC2CC([C@]3(O)CCC4[C@@H]5C[C@H]6O[C@]67[C@@H](O)C=CC(=O)[C@]7(C)C5CC[C@@]43C)C1(C)C2 (some centres not stated) | 4.54 µM (inactive) | 31.3 µM (inactive) | 3.07 µM (inactive) | 23.1 µM (inactive) | 3.76 µM (inactive) | 9.35 µM (inactive) | 15.7 µM (inactive) | 6.68 µM (inactive) | 23.8 µM (inactive) | 16.5 µM (inactive) |  | 3.52 µM (inactive) | 12.1 µM (inactive) | 17.1 µM (inactive) | 47.2 µM (inactive) | 8.73 µM (inactive) | 18.8 µM (inactive) | 6.93 µM (inactive) | > 50.9 µM (inactive) | 29.8 µM (inactive)
Cc1nc([N+](=O)[O-])cn1-c1nc2ccccn2c1[N+](=O)[O-] |  | > 100 µM (inactive) | > 100 µM (inactive) | 68.9 µM (inactive) | 43.8 µM (inactive) | > 100 µM (inactive) | > 100 µM (inactive) | > 100 µM (inactive) | > 100 µM (inactive) | 30 µM (inactive) | > 100 µM (inactive) |  | > 100 µM (inactive) | 64.9 µM (inactive) | 80.2 µM (inactive) | 67.5 µM (inactive) | > 100 µM (inactive) | 90.4 µM (inactive) | > 100 µM (inactive) | 32.9 µM (inactive)
c1ccc(/C(=N/Nc2nc3ccccc3s2)C2CCCCC2)nc1 | 13.6 µM (inactive) | 16.6 µM (inactive) | 5.21 µM (inactive) | 4.43 µM (inactive) | 4.13 µM (inactive) | 10.4 µM (inactive) | 14.8 µM (inactive) | 18.6 µM (inactive) | 3.26 µM (inactive) | 9.44 µM (inactive) | 10 µM (inactive) |  | 9.79 µM (inactive) | 0.569 µM (active) | 13.2 µM (inactive) | 2.47 µM (inactive) | 6.58 µM (inactive) | 1.57 µM (inactive) | 2.58 µM (inactive) | 
CCOC(=O)c1nnsc1NC(=O)NCCCCCCn1c(=O)n(CCCCCCNC(=O)Nc2snnc2C(=O)OCC)c(=O)n(CCCCCCNC(=O)Nc2snnc2C(=O)OCC)c1=O |  | 67.1 µM (inactive) | 67.6 µM (inactive) | 32.1 µM (inactive) | 25.1 µM (inactive) |  | 63.7 µM (inactive) | 33 µM (inactive) | > 100 µM (inactive) | 33.3 µM (inactive) | 18.1 µM (inactive) |  | 80 µM (inactive) | > 100 µM (inactive) | 18.6 µM (inactive) |  | 47 µM (inactive) | > 100 µM (inactive) | > 100 µM (inactive) | 29.1 µM (inactive)
